Reference: patent US9353082B2, “Pharmaceutical compounds” (BIAL—PORTELA & CA, S.A., priority 2008, dated 2016)

target: T1, FAAH (Rattus norvegicus, UniProt P97612); test: In vitro FAAH activity in rat brain membranes, 3H-AEA substrate, % of control; format: biochemical, Wistar rats; conditions: 100 nM test compound, low value = strong inhibitor
T1 construct: Frozen brains (without cerebellum) from Wistar rats were used; from tissue; host or cells: Wistar rat brain (without cerebellum), washed membrane pellets
T1 sequence (P97612 1-579): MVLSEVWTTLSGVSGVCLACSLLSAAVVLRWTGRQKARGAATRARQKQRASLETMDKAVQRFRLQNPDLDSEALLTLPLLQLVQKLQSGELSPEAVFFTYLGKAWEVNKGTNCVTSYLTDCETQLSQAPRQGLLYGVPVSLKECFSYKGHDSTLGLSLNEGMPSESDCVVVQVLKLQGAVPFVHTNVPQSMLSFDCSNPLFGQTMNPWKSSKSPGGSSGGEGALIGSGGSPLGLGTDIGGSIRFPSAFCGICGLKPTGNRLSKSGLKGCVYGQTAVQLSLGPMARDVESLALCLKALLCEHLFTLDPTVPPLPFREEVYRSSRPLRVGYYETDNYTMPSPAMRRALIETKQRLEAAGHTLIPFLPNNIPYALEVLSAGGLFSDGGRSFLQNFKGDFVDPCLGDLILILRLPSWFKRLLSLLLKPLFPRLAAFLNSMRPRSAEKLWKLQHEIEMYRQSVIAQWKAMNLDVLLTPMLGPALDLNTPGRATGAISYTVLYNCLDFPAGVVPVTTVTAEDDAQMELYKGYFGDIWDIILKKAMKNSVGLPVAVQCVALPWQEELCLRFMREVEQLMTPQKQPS
Procedure, shortened: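 Wistar rat brain membranes (5 μg protein) preincubated 15 min at 37 °C with compound at 10 μM or 0.1 μM (0.1% DMSO), then 2 μM AEA including 3H-AEA with 0.1% BSA, Tris pH 7.6, 10 min. 3H-ethanolamine counted after charcoal stop; % of no-compound control after blank subtraction.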

SMILES	In Vitro FAAH activity, 100 nM
NC(=O)c1ccc(Oc2cccc(-c3ncn(C(=O)N4CCOCC4)n3)c2)cc1 [Compound 210, 4-(3-(1-(morpholine-4-carbonyl)-1H-1,2,4-triazol-3-yl)phenoxy)benzamide]	73.3 % of control
COc1ccc(-c2ncn(C(=O)N3CCN(c4ccc(F)cc4)CC3)n2)cc1 [Compound 211, (4-(4-fluorophenyl)piperazin-1-yl)(3-(4-methoxyphenyl)-1H-1,2,4-triazol-1-yl)methanone]	1.9 % of control
Cl.O=C(N1CCN(C2CCCCC2)CC1)n1cnc(-c2ccc(Cl)cc2)n1 [Compound 212, (3-(4-chlorophenyl)-1H-1,2,4-triazol-1-yl)(4-cyclohexylpiperazin-1-yl)methanone hydrochloride]	0.8 % of control
O=C(N1CCSC1)n1cnc(-c2ccc(Cl)cc2)n1 [Compound 214, (3-(4-chlorophenyl)-1H-1,2,4-triazol-1-yl)(thiazolidin-3-yl)methanone]	23.7 % of control
O=C(N1CCSC1)n1cnc(-c2ccc(F)c(F)c2)c1 [Compound 215, (4-(3,4-difluorophenyl)-1H-imidazol-1-yl)(thiazolidin-3-yl)methanone]	16.7 % of control
O=C(N1CCCC1)n1cnc(-c2ccc(Cl)c(Cl)c2)c1 [Compound 218, (4-(3,4-dichlorophenyl)-1H-imidazol-1-yl)(pyrrolidin-1-yl)methanone]	31.6 % of control
O=C(N1CCN(c2ccc(F)cc2)CC1)n1cnc(-c2ccc(Cl)cc2)c1 [Compound 223, (4-(4-chlorophenyl)-1H-imidazol-1-yl)(4-(4-fluorophenyl)piperazin-1-yl)methanone]	1.1 % of control
Br.CN(C(=O)n1cnc(-c2ccc(OCCN3CCCCC3)cc2)c1)c1ccccc1 [Compound 224, N-methyl-N-phenyl-4-(4-(2-(piperidin-1-yl)ethoxy)phenyl)-1H-imidazole-1-carboxamide hydrobromide]	90 % of control
COc1cc(-c2cn(C(=O)N3COCC3(C)C)cn2)ccc1OCc1ccccc1 [Compound 225, (4-(4-(benzyloxy)-3-methoxyphenyl)-1H-imidazol-1-yl)(4,4-dimethyloxazolidin-3-yl)methanone]	79 % of control
CC1OCCN1C(=O)n1cnc(-c2ccccc2)c1 (stereo not drawn) [Compound 227, (2-methyloxazolidin-3-yl)(4-phenyl-1H-imidazol-1-yl)methanone]	64.7 % of control
CN(C(=O)n1cnc(-c2ccccc2)c1)C12CC3CC(CC(C3)C1)C2 [Compound 229]	99.2 % of control
CN(C(=O)n1cnc(-c2ccc(OCCN3CCOCC3)cc2)c1)c1ccccc1.Cl [Compound 230, N-methyl-4-(4-(2-morpholinoethoxy)phenyl)-N-phenyl-1H-imidazole-1-carboxamide hydrochloride]	96.1 % of control
O=C(OCCN(C(=O)n1cnc(-c2ccccc2)c1)C1=CCCC1)n1cnc(-c2ccccc2)c1 [Compound 234, 2-(N-cyclopentenyl-4-phenyl-1H-imidazole-1-carboxamido)ethyl 4-phenyl-1H-imidazole-1-carboxylate]	78.2 % of control
O=C(NC12CC3CC(CC(C3)C1)C2)n1cnc(-c2ccccc2)c1 [Compound 237]	91.6 % of control
O=C(N1CCOC1c1ccccc1)n1cnc(-c2ccc(Cl)cc2)c1 (stereo not drawn) [Compound 241, (4-(4-chlorophenyl)-1H-imidazol-1-yl)(2-phenyloxazolidin-3-yl)methanone]	76.5 % of control
CN(C(=O)n1nnc2ccc(O)cc21)C1CCCCC1 [Compound 242, N-cyclohexyl-6-hydroxy-N-methyl-1H-benzo[d][1,2,3]triazole-1-carboxamide]	0 % of control
CC1(C)COCN1C(=O)n1nnc2cc(-c3cccc(C(N)=O)c3)ccc21 [Compound 243, 3-(1-(4,4-dimethyloxazolidine-3-carbonyl)-1H-benzo[d][1,2,3]triazol-5-yl)benzamide]	39.7 % of control

SMILES	In Vitro FAAH activity, 100 nM
CN(C(=O)n1cnc(-c2ccc(Cl)cc2)c1)C1CCCC1 [Compound 244, 4-(4-chlorophenyl)-N-cyclopentyl-N-methyl-1H-imidazole-1-carboxamide]	5.4 % of control
CN(C(=O)n1cnc(-c2cccc(-c3cccc(F)c3)c2)c1)C1CCCCC1 [Compound 246, N-cyclohexyl-4-(3′-fluorobiphenyl-3-yl)-N-methyl-1H-imidazole-1-carboxamide]	2.9 % of control
CC(C)N(Cc1ccccc1)C(=O)n1cnc(-c2ccc(Cl)cc2)c1 [Compound 249, N-benzyl-4-(4-chlorophenyl)-N-isopropyl-1H-imidazole-1-carboxamide]	95.8 % of control
CC(C)(C)N(Cc1ccccc1)C(=O)n1cnc(-c2ccccc2)c1 [Compound 251, N-benzyl-N-tert-butyl-4-phenyl-1H-imidazole-1-carboxamide]	91.7 % of control
CC(C)(C)N(Cc1ccccc1)C(=O)n1cnc(-c2ccc(Cl)cc2)c1 [Compound 252, N-benzyl-N-tert-butyl-4-(4-chlorophenyl)-1H-imidazole-1-carboxamide]	83.6 % of control
O=C(N1CCS(=O)(=O)C1)n1cnc(-c2ccc(Cl)cc2)n1 [Compound 253, 3-(4-chlorophenyl)-1-[(1,1-dioxido-1,3-thiazolidin-3-yl)carbonyl]-1H-1,2,4-triazole]	107.7 % of control
COc1cccc(-c2cn(C(=O)N(Cc3ccccc3)C(C)C)cn2)c1 [Compound 255, N-benzyl-N-isopropyl-4-(3-methoxyphenyl)-1H-imidazole-1-carboxamide]	96.7 % of control
COc1cccc(-c2cn(C(=O)N(Cc3ccccc3)C(C)(C)C)cn2)c1 [Compound 256, N-benzyl-N-tert-butyl-4-(3-methoxyphenyl)-1H-imidazole-1-carboxamide]	105.6 % of control
CCOc1cccc(-c2cccc(-c3cn(C(=O)N(C)C4CCCCC4)cn3)c2)c1 [Compound 258, N-cyclohexyl-4-(3'-ethoxybiphenyl-3-yl)-N-methyl-1H-imidazole-1-carboxamide]	39.9 % of control
CN(C(=O)n1cnc(-c2cccc(-c3cc(Cl)ccc3F)c2)c1)C1CCCCC1 [Compound 259, 4-(5′-chloro-2′-fluorobiphenyl-3-yl)-N-cyclohexyl-N-methyl-1H-imidazole-1-carboxamide]	33.7 % of control
CN(C(=O)n1cnc(-c2cccc(O)c2)c1)C1CCCC1 [Compound 262, N-cyclopentyl-4-(3-hydroxyphenyl)-N-methyl-1H-imidazole-1-carboxamide]	7.5 % of control
CC(C)N(Cc1ccccc1)C(=O)n1cnc(-c2cccc(O)c2)c1 [Compound 265, N-benzyl-4-(3-hydroxyphenyl)-N-isopropyl-1H-imidazole-1-carboxamide]	99.6 % of control
CN(C(=O)n1nnc2ccccc21)C1CCCC1 [Compound 266, N-cyclopentyl-N-methyl-1H-benzo[d][1,2,3]triazole-1-carboxamide]	0.2 % of control
CC1(C)OCCN1C(=O)n1cnc(-c2ccccc2)c1Cl [Compound 268, (5-chloro-4-phenyl-1H-imidazol-1-yl)(2,2-dimethyloxazolidin-3-yl)methanone]	104.1 % of control
CC1(C)COCN1C(=O)n1c(Cl)nc(-c2ccc(Cl)cc2)c1Cl [Compound 269, (2,5-dichloro-4-(4-chlorophenyl)-1H-imidazol-1-yl)(4,4-dimethyloxazolidin-3-yl)methanone]	106.2 % of control
CCC1CN(C(=O)n2cnc(-c3ccccc3)c2)C(C)(C)O1 (stereo not drawn) [Compound 270, (5-ethyl-2,2-dimethyloxazolidin-3-yl)(4-phenyl-1H-imidazol-1-yl)methanone]	113.1 % of control
COc1ccccc1-c1cn(C(=O)N(C)C2CCCCC2)cn1 [Compound 271, N-cyclohexyl-4-(2-methoxyphenyl)-N-methyl-1H-imidazole-1-carboxamide]	55.8 % of control

same assay, conditions: rat brain membranes, compound at 100 nM, low value = strong inhibitor

SMILES	In Vitro 100 nM (FAAH activity, % of control)
CN(C(=O)n1cnc(-c2ccc(Cl)c(Cl)c2)c1)C1CCCCC1 [Compound 274, N-cyclohexyl-4-(3,4-dichlorophenyl)-N-methyl-1H-imidazole-1-carboxamide]	85 % of control
CN(C(=O)n1cnc(-c2ccc(Cl)cc2)c1)C1CCCCC1 [Compound 277, 4-(4-chlorophenyl)-N-cyclohexyl-N-methyl-1H-imidazole-1-carboxamide]	72.1 % of control
